Patent US10174056B2, “Substituted pyrrolo[2,3-d]pyrimidines as janus kinase inhibitors” (WUXI FORTUNE PHARMACEUTICAL CO., LTD, priority 2015, dated 2019)
pIC50: −log10 of the molar value.

Tests used:
[1] = biological target: T1, JAK1 (Homo sapiens, UniProt P23458); assay: Test for in vitro activity of JAK1 kinase (LANCE Ultra ULight peptide); format: biochemical; conditions: recombinant human JAK1, 38 uM ATP, 90 min
T1 construct: purchased Life technology
Procedure: (§1) Test for in vitro activity of Jak1, Jak2, and Jak3 Kinase
(§2) Recombinant human […] of JAK1, JAK2 and JAK3 were purchased from Life technology. LANCE Ultra ULight™-JAK-1 (Tyr1023) peptide and LANCE Eu-W1024 Anti-phosphotyrosine (PT66) were purchased from PerkinElmer. Multimode ELISA, Envison(PerkinElmer) reader was used.
(§3) The test compound was diluted according to gradient of three times concentration with a final concentration of from 10 uM to 0.17 nM at 11 concentrations totally, each concentration with two complex holes, and the content of DMSO in the detection was 1%.
(§4) 2 nM of JAK1 Protein kinase, 50 nM of LANCE Ultra ULight™-JAK-1(Tyr1023) peptide, 38 uM of ATP, 50 mM of HEPES (pH 7.5), 10 mM of MgCl2, 1 mM of EGTA, 2 mM of DTT, 0.01% BRIJ-35. Checker board is White Proxiplate 384-Plus plate (PerkinElmer). The reaction was carried out at room temperature for 90 min and the reaction system was 10 ul.
(§5) 10 ul detection reagent was added to reaction plate, wherein the final concentration of LANCE Eu-W1024 Anti-phosphotyrosine (PT66) was 2 nM, the final concentration of EDTA was […], incubated at room temperature for 60 min, with Envison reader.
(§6) The reading was converted to inhibition ratio (%) by the following formula: the inhibition ratio (%)=([…])/(Max−Min)×100%.

[2] = biological target: T2, JAK2 (Homo sapiens, UniProt O60674); assay: Test for in vitro activity of JAK2 kinase (LANCE Ultra ULight peptide); format: biochemical; conditions: recombinant human JAK2, 12 uM ATP, 60 min
T2 construct: purchased Life technology
T2 sequence (O60674 whole entry): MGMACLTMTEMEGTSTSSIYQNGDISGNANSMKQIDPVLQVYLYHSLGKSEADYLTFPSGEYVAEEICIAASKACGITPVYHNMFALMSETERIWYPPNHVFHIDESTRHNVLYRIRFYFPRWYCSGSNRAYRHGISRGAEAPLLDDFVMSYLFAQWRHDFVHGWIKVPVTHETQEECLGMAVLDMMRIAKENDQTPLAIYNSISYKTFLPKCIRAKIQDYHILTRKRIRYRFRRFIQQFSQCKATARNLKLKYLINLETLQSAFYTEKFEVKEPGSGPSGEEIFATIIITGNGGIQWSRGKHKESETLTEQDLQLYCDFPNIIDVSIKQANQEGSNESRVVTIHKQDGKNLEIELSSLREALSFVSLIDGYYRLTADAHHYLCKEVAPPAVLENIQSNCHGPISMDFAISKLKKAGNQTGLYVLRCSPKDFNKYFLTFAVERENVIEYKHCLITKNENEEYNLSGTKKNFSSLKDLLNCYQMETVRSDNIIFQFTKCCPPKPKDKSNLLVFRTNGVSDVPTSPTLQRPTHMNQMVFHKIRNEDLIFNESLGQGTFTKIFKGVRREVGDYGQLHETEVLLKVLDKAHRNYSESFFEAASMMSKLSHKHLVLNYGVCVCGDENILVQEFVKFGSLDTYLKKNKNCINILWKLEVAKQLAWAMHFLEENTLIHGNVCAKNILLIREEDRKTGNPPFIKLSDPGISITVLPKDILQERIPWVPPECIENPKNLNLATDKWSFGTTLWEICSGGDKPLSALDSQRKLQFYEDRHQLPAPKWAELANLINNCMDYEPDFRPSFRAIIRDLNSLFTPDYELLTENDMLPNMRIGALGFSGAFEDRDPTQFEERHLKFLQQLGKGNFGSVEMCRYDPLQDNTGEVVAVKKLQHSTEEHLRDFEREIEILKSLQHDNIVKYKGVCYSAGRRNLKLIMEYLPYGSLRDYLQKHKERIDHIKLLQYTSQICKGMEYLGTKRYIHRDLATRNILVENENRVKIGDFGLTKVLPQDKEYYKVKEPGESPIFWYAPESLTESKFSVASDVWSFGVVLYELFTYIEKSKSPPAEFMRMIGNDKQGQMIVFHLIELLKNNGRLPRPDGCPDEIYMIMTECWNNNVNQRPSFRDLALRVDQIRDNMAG
Procedure: as §1, §2, §3
as §4, with “0.02 nM” for “2 nM”, “of JAK2” for “of JAK1”, “peptide, 12” for “peptide, 38”, “for 60” for “for 90”
as §5, §6

[3] = Pharmacokinetic (PK) test in mice; format: in vivo, DBA/1 mice; conditions: for bioavailability / AUC(0-inf) / Cmax / half-life: mouse, plasma, po, DBA/1 mice, mean; for bioavailability: gavage vs tail vein injection; for AUC(0-inf) / Cmax / half-life: tail vein injection and gavage
Procedure: Pharmacokinetic (PK) Test
The clear solution obtained by dissolving the test compound was respectively administrated by tail vein injection and gavage into the mice DBA/1 mice (overnight fasting, 7 to 8 weeks old). After administration of the test compound, the mice in the vein injection group at 0.083, 0.25, 0.5, 1, 2, 4, 8 and 24 hours, and gavage group at 0.25, 0.5, 1, 2, 4, 8 and 24 hours, blood is collected from the mandibular vein and centrifuged to obtain plasma. The plasma concentration was determined by LC-MS/MS. The pharmacokinetic parameters were calculated by non-compartmental model linear logarithmic trapezoid method with using WinNonlin™ Version 6.3 pharmacokinetic software.

[4] = tested on: rat adjuvant arthritis model; assay: Rat adjuvant-induced arthritis model efficacy test; format: in vivo; conditions: Lewis rats, oral; for AUC (%): two weeks of administration from day 13; for arthritis inhibitory activity (in words): swollen foot volume and score
Procedure: Rat Adjuvant-Induced Arthritis Model Efficacy Test
The effect of the compounds of the present invention on the treatment of arthritis was verified by rat adjuvant arthritis models.
Female, Lewis rats with body weight 160-180 g were anesthetized with isoflurane and was injected with 0.1 ml of mycobacterium tuberculosis suspension subcutaneously in the left posterior foot. After modeling for 13 days, the corresponding test compound was administrated, such as that the rats were respectively administrated with 1 mpk, 3 mpk, 10 mpk of the test compound WX614, 10 mpk of the test compound WX552, and 10 mpk of the test compound WX591 dissolved in a mixed solvent of DMSO/PEG400/H2O, and orally administered to female Lewis rats (10 rats in each dose group). Two weeks after continuous administration, the state of the rats was observed and the volume of the swollen foot was recorded and scored.

[5] = tested on: mouse collagen-induced arthritis model; assay: Mouse collagen-induced arthritis model efficacy test; format: in vivo, DBA/1 male mice; conditions: CIA mice, oral, 2 weeks
Procedure: Mouse Collagen-Induced Arthritis Model Efficacy Test
The effect of the compounds of the present invention on the treatment of arthritis was verified by the mouse collagen-induced arthritis model.
The DBA/l male mice were selected and injected subcutaneously with the emulsions of collagen and Freund's complete adjuvant at base of tail on day 0 and day 21, and on day 29 the mice was divided into groups. The compound WX6144 (3 mpk, 10 mpk, 30 mpk) was dissolved in DMSO/PEG400/H2O [5/20/75 (v/v/v)] and administered orally to CIA mice (Shanghai SLAC Laboratory Animal Co., Ltd, 10 mice in each dose group), and the mice were continuously administrated for 2 weeks, the weight of mice were recorded and the arthritis of mice was clinically scored.

T1 sequence (P23458 whole entry): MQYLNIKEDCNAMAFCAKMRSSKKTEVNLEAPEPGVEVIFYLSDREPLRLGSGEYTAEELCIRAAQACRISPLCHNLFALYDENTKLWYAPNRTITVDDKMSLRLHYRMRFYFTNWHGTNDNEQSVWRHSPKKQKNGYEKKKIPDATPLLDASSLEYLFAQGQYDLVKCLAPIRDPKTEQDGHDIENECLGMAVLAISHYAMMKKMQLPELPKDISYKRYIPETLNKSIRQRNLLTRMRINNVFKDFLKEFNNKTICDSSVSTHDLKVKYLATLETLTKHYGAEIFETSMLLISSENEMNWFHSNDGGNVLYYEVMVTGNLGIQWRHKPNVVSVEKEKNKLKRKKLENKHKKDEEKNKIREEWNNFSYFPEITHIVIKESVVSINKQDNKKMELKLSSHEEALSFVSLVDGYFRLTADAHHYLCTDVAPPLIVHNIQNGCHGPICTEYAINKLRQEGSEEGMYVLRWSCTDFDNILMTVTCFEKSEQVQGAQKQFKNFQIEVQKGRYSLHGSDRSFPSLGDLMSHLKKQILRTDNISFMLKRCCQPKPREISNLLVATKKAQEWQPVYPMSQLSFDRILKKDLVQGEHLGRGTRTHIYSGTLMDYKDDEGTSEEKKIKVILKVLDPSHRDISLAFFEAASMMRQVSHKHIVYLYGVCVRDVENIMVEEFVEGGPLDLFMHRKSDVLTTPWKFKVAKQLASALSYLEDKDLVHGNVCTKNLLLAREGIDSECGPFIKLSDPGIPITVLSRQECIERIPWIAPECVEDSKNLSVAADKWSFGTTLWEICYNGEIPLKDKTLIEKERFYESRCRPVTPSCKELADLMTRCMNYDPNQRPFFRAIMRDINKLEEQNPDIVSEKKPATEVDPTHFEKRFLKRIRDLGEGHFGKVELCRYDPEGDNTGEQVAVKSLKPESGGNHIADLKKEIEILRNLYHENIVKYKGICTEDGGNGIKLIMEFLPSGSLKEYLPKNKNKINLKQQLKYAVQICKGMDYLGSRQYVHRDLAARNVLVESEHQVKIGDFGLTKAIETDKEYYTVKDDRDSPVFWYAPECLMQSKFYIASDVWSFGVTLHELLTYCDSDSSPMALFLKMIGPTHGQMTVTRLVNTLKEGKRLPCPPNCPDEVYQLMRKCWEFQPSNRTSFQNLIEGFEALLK

Compound	pIC50 [1]	pIC50 [2]	other results
CN(c1ncnc2[nH]ccc12)C1CCn2cc(CC#N)nc2C1 (racemic) [WX552, 2-[7-[methyl(7H-pyrrolo[2,3-d]pyrimidine-4-yl)amino]-5,6,7,8-tetrahydroimidazo[1,2-a]pyridine-2-yl]acetonitrile]	7.00 to 8.00	6.00 to 7.00	oral bioavailability and exposure in mice (in words) [3]: good oral bioavailability and higher exposure; bioavailability [3]: 74.4%; AUC(0-inf) [3]: 11.4 µM·h; Cmax [3]: 3.72 µM; half-life [3]: 1.18 h; AUC (%) ([4]; 10 mg/kg): 31.7%; arthritis inhibitory activity (in words) [4]: good arthritis inhibitory activity
CN(c1ncnc2[nH]ccc12)C1CCn2cc(C#N)nc2C1 (racemic) [WX591, 7-[methyl-[7 hydropyrrolo[2,3-d]pyrimidine-4-yl]amino]-5,6,7,8-tetrahydroimidazo [1,2-a]pyridine-2-nitrile]	7.00 to 8.00	6.00 to 7.00	oral bioavailability and exposure in mice (in words) [3]: good oral bioavailability and higher exposure; bioavailability [3]: 87%; AUC(0-inf) [3]: 10.5 µM·h; Cmax [3]: 3.02 µM; half-life [3]: 2.26 h; AUC (%) ([4]; 10 mg/kg): 44.7%; arthritis inhibitory activity (in words) [4]: good arthritis inhibitory activity
CN(c1ncnc2[nH]ccc12)C1CCn2cc(CC#N)nc2C1 (single isomer, unassigned) [WX612, (S or R) 2-[7-[methyl(7H-pyrrolo[2,3-d]pyrimidine-4-yl)amino]-5,6,7,8-tetrahydroimidazo[1,2-a]pyridine-2-yl]acetonitrile]	< 6.00	< 6.00	–
CN(c1ncnc2[nH]ccc12)C1CCn2cc(CC#N)nc2C1 (single isomer, unassigned) [WX613, (R or S)2-[7-[methyl(7H-pyrrolo[2,3-d]pyrimidine-4-yl)amino]-5,6,7,8-tetrahydroimidazo [1,2-a]pyridine-2-yl]acetonitrile]	7.00 to 8.00	6.00 to 7.00	–
CN(c1ncnc2[nH]ccc12)[C@H]1CCn2cc(C#N)nc2C1 (single isomer, unassigned) [WX614, (S or R) 7-[methyl-[7 hydropyrrolo[2,3-d]pyrimidine-4-yl]amino]-5,6,7,8-tetrahydroimidazo[1,2-a]pyridine-2-nitrile]	≥ 8.00	7.00 to 8.00	oral bioavailability and exposure in mice (in words) [3]: good oral bioavailability and higher exposure; bioavailability [3]: 73.9%; AUC(0-inf) [3]: 10.2 µM·h; Cmax [3]: 3.09 µM; half-life [3]: 1.76 h; AUC (%) ([4]; 1 mg/kg): 20.2%; AUC (%) ([4]; 3 mg/kg): 50.2%; AUC (%) ([4]; 10 mg/kg): 61.8%; arthritis inhibitory activity (in words) [4]: good arthritis inhibitory activity; AUC (%) ([5]; 3 mg/kg): 42.4%; AUC (%) ([5]; 10 mg/kg): 51.3%; AUC (%) ([5]; 30 mg/kg): 82.5%; therapeutic effect on mouse rheumatoid arthritis (in words) ([5]; clinical score): significant therapeutic effect
CN(c1ncnc2[nH]ccc12)[C@@H]1CCn2cc(C#N)nc2C1 (single isomer, unassigned) [WX615, (R or S) 7-[methyl-[7 hydropyrrolo[2,3-d]pyrimidine-4-yl]amino]-5,6,7,8-tetrahydroimidazo [1,2-a]pyridine-2-nitrile]	< 6.00	< 6.00	–
CCOC(=O)c1cn2c(n1)CC(N(C)c1ncnc3[nH]ccc13)CC2 (centres unmarked) [WX550, ethyl 7-[methyl(7H-pyrrolo[2,3-d]pyrimidine-4-yl)amino]-5,6,7,8-tetrahydroimidazo[1,2-a]pyridine-2-carboxylate]	6.00 to 7.00	< 6.00	–
CN(c1ncnc2[nH]ccc12)C1CCn2cc(CO)nc2C1 (centres unmarked) [WX551]	6.00 to 7.00	< 6.00	–
CN(c1ncnc2[nH]ccc12)C1CCn2cc(C(=O)NCC(F)(F)F)nc2C1 (centres unmarked) [WX579]	6.00 to 7.00	< 6.00	–
CN(c1ncnc2[nH]ccc12)C1CCn2cc(C(=O)NCC(F)F)nc2C1 (centres unmarked) [WX580]	6.00 to 7.00	< 6.00	–
CN(c1ncnc2[nH]ccc12)C1CCn2cc(C(=O)NCC#N)nc2C1 (centres unmarked) [WX581]	6.00 to 7.00	< 6.00	–
CN(c1ncnc2[nH]ccc12)C1CCn2cc(C(=O)NCCS(C)(=O)=O)nc2C1 (centres unmarked) [WX592]	< 6.00	< 6.00	–
CN(c1ncnc2[nH]ccc12)C1CCn2cc(C(=O)NC3CC(F)(F)C3)nc2C1 (centres unmarked) [WX593, N-(3,3-difluorocyclobutyl)-7-[methyl(7H-pyrrolo[2,3-d]pyrimidine-4-yl]amino]-5,6,7,8-tetrahydroimidazo [1,2-a]pyridine-2-carboxamide]	< 6.00	< 6.00	–
CNC(=O)c1cn2c(n1)CC(N(C)c1ncnc3[nH]ccc13)CC2 (centres unmarked) [WX604]	6.00 to 7.00	< 6.00	–
CNCc1cn2c(n1)CC(N(C)c1ncnc3[nH]ccc13)CC2 (centres unmarked) [WX605, N-methyl-N-[2-(methylaminomethyl)-5,6,7,8-tetrahydroimidazo[1,2-a]pyridine-7-yl]-7H-7H-pyrrolo[2,3-d]pyrimidine-4-amine]	< 6.00	< 6.00	–
CN(c1ncnc2[nH]ccc12)C1CCn2cc(CNS(C)(=O)=O)nc2C1 (centres unmarked) [WX606, N-((7-(methyl-(7H-pyrrolo[2,3-d]pyrimidine-4-yl)amine)-5,6,7,8-tetrahydroimidazo[1,2-a]pyridine-2-yl)methyl)methanesulfonamide]	6.00 to 7.00	< 6.00	–
